Measurements published in patent US6858591B2, “Antibiotic AA 896 analogs” (Wyeth Holdings Corporation, priority 2001, dated 2005).
In brackets after ≈: the same amount, converted by molar mass. Like-named read-outs stand apart in the source and are kept apart here.

Legend:
Experiment in all cases: In vitro MIC, broth dilution
Type in all cases: cell-based
E. coli GC 4559 = settings: Escherichia coli, GC4559; E. coli GC 4559; read-out: MIC
E. coli GC 4560 = settings: Escherichia coli, GC4560; E. coli GC 4560; read-out: MIC
E. coli GC 3226 = settings: Escherichia coli, GC3226; E. coli GC 3226; read-out: MIC
S. marcescens GC 4077 = settings: Serratia marcescens, GC4077; S. marcescens GC 4077; read-out: MIC
C. albicans GC 3066 = settings: Candida albicans, GC3066; C. albicans GC 3066; read-out: MIC
M. morganii GC 4531 = settings: Morganella morganii, GC4531; M. morganii GC 4531; read-out: MIC
K. pneumoniae GC 4534 = settings: Klebsiella pneumoniae, GC4534; K. pneumoniae GC 4534; read-out: MIC
E. cloacae GC 3783 = settings: Enterobacter cloacae, GC3783; E. cloacae GC 3783; read-out: MIC
P. aeruginosa GC 4532 = settings: Pseudomonas aeruginosa, GC4532; P. aeruginosa GC 4532; read-out: MIC
CNS GC 4537 = test system: CNS GC 4537
Experimental: (§1) The minimum inhibitory concentration (MIC), the lowest concentration of the antibiotic which inhibits growth of the test organism, is determined by the broth dilution method using Muller-Hinton II […] (Baltimore Biological Laboratories) following the recommendations of National Committee for Clinical Laboratory Standards. [Reference for the Methods for dilution antimicrobial susceptibility tests for bacteria that grow aerobically: National Committee for Clinical Laboratory Standards, 1997. Approved standard M7-A National Committee for Clinical Laboratory Standards, Wayne, Pa.] An inoculum level of 5×10^5 CFU/ml, and a range of antibiotic concentrations (64-0.06 μg/ml) is used. The MIC is determined after the microtiter plates are incubated for 18 hours at 35° C. in an ambient air incubator. The test organisms comprise a spectrum of gram-positive bacteria including Staphylococcus sp., Streptococcus sp. and Enterococcus sp. These organisms include recent clinical isolates that are resistant to methicillin, penicillin and vancomycin.

CNS GC 4538 = test system: CNS GC 4538
Experimental: as §1

CNS GC 4547 = test system: CNS GC 4547
Experimental: as §1

E. faecalis GC 2242 = settings: Enterococcus faecalis, GC2242; E. faecalis GC 2242; read-out: MIC
Experimental: as §1

E. faecalis GC 4555 = settings: Enterococcus faecalis, GC4555; E. faecalis GC 4555; read-out: MIC
Experimental: as §1

E. faecalis GC 842 = settings: Enterococcus faecalis, GC842; E. faecalis GC 842; read-out: MIC
Experimental: as §1

S. aureus GC 1131 = settings: Staphylococcus aureus, GC1131; S. aureus GC 1131; read-out: MIC
Experimental: as §1

S. aureus GC 2216 = settings: Staphylococcus aureus, GC2216; S. aureus GC 2216; read-out: MIC
Experimental: as §1

S. aureus GC 4536 = settings: Staphylococcus aureus, GC4536; S. aureus GC 4536; read-out: MIC
Experimental: as §1

E. coli GC 2203 = settings: Escherichia coli, GC2203; E. coli GC 2203; read-out: MIC
P. aeruginosa GC 2214 = settings: Pseudomonas aeruginosa, GC2214; P. aeruginosa GC 2214; read-out: MIC

Compound | MIC (E. coli GC 4559) [µg/mL] | MIC (E. coli GC 4560) [µg/mL] | MIC (E. coli GC 3226) [µg/mL] | MIC (S. marcescens GC 4077) [µg/mL] | MIC (C. albicans GC 3066) [µg/mL] | MIC (M. morganii GC 4531) [µg/mL] | MIC (K. pneumoniae GC 4534) [µg/mL] | MIC (E. cloacae GC 3783) [µg/mL] | MIC (P. aeruginosa GC 4532) [µg/mL] | MIC (CNS GC 4537; CNS GC 4537, read-out: MIC) [µg/mL] | MIC (CNS GC 4538; CNS GC 4538, read-out: MIC) [µg/mL] | MIC (CNS GC 4547; CNS GC 4547, read-out: MIC) [µg/mL] | MIC (E. faecalis GC 2242) [µg/mL] | MIC (E. faecalis GC 4555) [µg/mL] | MIC (E. faecalis GC 842) [µg/mL] | MIC (S. aureus GC 1131) [µg/mL] | MIC (S. aureus GC 2216) [µg/mL] | MIC (S. aureus GC 4536) [µg/mL] | MIC (E. coli GC 2203) [µg/mL] | MIC (P. aeruginosa GC 2214) [µg/mL] | other results
CC(C)C[C@H](NC(=O)OCc1ccccc1)C(=O)NCCCN[C@H](C(=O)OC(C)(C)C)[C@@H](O)C1O[C@@H](n2ccc(=O)[nH]c2=O)[C@H](O[Si](C)(C)C(C)(C)C)[C@@H]1O[Si](C)(C)C(C)(C)C (stereo partly drawn) [Example 6, tert-Butyl (5S,12S)-12-[(R)-[(3R,4R,5R)-3,4-bis{[tert-butyl(dimethyl)silyl]oxy}-5-(2,4-dioxo-3,4-dihydro-1(2H)-pyrimidinyl)tetrahydro-2-furanyl](hydroxy)methyl]-5-isobutyl-3,6-dioxo-1-phenyl-2-oxa-4,7,11-triazatridecan-13-oate] | > 128 | 128 (≈ 141 µM) | > 128 | > 128 | > 128 | 128 (≈ 141 µM) | > 128 | > 128 | 128 (≈ 141 µM) | > 128 | > 128 | > 128 | 64 (≈ 70.6 µM) | > 128 | > 128 | > 128 | > 128 | > 128 | > 128 | 128 (≈ 141 µM) | –
CCOC(=O)C(NCCCNC(=O)[C@H](CC(C)C)NC(=O)OCc1ccccc1)C(OC(C)=O)[C@H]1O[C@H](n2ccc(=O)[nH]c2=O)[C@H](OC(C)=O)[C@@H]1OC(C)=O (stereo partly drawn) [Example 38a, Ethyl (5S)-12-{(R)-(acetyloxy)[(2R,3R,4R,5S)-3,4-bis(acetyloxy)-5-(2,4-dioxo-3,4-dihydro-1(2H)-pyrimidinyl)tetrahydro-2-furanyl]methyl}-5-isobutyl-3,6-dioxo-1-phenyl-2-oxa-4,7,11-triazatridecan-13-oate] | > 128 | > 128 | > 128 | > 128 | > 128 | > 128 | > 128 | > 128 | > 128 | > 128 | > 128 | > 128 | > 128 | > 128 | > 128 | > 128 | > 128 | > 128 | > 128 | > 128 | –
COc1ccc(Cn2c(=O)ccn([C@@H]3OC([C@H](O)[C@H](NCCCNC(=O)[C@@H](N)CCC(=O)OC(C)(C)C)C(=O)OC(C)(C)C)[C@@H](O[Si](C)(C)C(C)(C)C)[C@H]3O[Si](C)(C)C(C)(C)C)c2=O)cc1 (stereo partly drawn) [Example 21, tert-Butyl (4S)-4-amino-5-[(3-{[(1S,2R)-2-[(3R,4R,5R)-3,4-bis{[tert-butyl(dimethyl)silyl]oxy}-5-(3-(4-methoxybenzyl)-2,4-dioxo-3,4-dihydro-1(2H)-pyrimidinyl)tetrahydro-2-furanyl]-1-(tert-butoxycarbonyl)-2-hydroxyethyl]amino}propyl)amino]-5-oxopentanoate] | > 128 | > 128 | > 128 | > 128 | > 128 | > 128 | > 128 | > 128 | > 128 | > 128 | > 128 | > 128 | > 128 | > 128 | > 128 | > 128 | > 128 | > 128 | > 128 | > 128 | –
COc1ccc(Cn2c(=O)ccn([C@@H]3OC([C@H](O)[C@H](NCCCNC(=O)[C@@H](N)CC(C)C)C(=O)OC(C)(C)C)[C@@H](O[Si](C)(C)C(C)(C)C)[C@H]3O[Si](C)(C)C(C)(C)C)c2=O)cc1 (stereo partly drawn) [Example 5, tert-Butyl (2S,3R)-2-[(3-{[(2S)-2-amino-4-methylpentanoyl]amino}propyl)amino]-3-[(3R,4R,5R)-3,4-bis{[tert-butyl(dimethyl)silyl]oxy}-5-(3-(4-methoxybenzyl)-2,4-dioxo-3,4-dihydro-1(2H)-pyrimidinyl)tetrahydro-2-furanyl]-3-hydroxypropanoate] | > 128 | > 128 | > 128 | > 128 | > 128 | > 128 | > 128 | > 128 | > 128 | 4 (≈ 4.48 µM) | 8 (≈ 8.97 µM) | 64 (≈ 71.7 µM) | 4 (≈ 4.48 µM) | 8 (≈ 8.97 µM) | 16 (≈ 17.9 µM) | 32 (≈ 35.9 µM) | 8 (≈ 8.97 µM) | 16 (≈ 17.9 µM) | > 128 | > 128 | –
CCCCCCCCCCCCCC(=O)OC(C)[C@H](NC(=O)OCc1ccccc1)C(=O)NCCCNC(C(=O)OCC)C(O)C1O[C@@H](n2ccc(=O)[nH]c2=O)[C@H](OC(C)=O)[C@@H]1OC(C)=O (stereo in doubt) [Example 58, Ethyl (5S)-12-[(R)-[(2R,3R,4R,5R)-3,4-bis(acetyloxy)-5-(2,4-dioxo-3,4-dihydropyrimidin-1(2 h)-yl)tetrahydrofuran-2-yl](hydroxy)methyl]-3,6-dioxo-1-phenyl-5-[(1S)-1-(tetradecanoyloxy)ethyl]-2-oxa-4,7,11-triazatridecan-13-oate] | > 128 | > 128 | > 128 | > 128 | > 128 | > 128 | > 128 | > 128 | > 128 | > 128 | > 128 | > 128 | > 128 | > 128 | > 128 | > 128 | > 128 | > 128 | > 128 | > 128 | –
COc1ccc(Cn2c(=O)ccn([C@@H]3OC([C@H](O)[C@H](NCCCNC(=O)[C@@H](NC(=O)[C@H](CCCNC(=N)N[N+](=O)[O-])NC(=O)N[C@H](C(=O)OCc4ccccc4)C(C)C)C(C)O)C(=O)O)[C@@H](O)[C@H]3O)c2=O)cc1 (stereo partly drawn) [Example 47, (4S,8S,11S,18S)-18-[(R)-[(3S,4R,5R)-3,4-Dihydroxy-5-(3-(4-methoxybenzyl)-2,4-dioxo-3,4-dihydro-1(2H)-pyrimidinyl)tetrahydro-2-furanyl](hydroxy)methyl]-8-(3-{[(2,2-dioxido-2lambda˜1˜-diazanyl)(imino)methyl]amino}propyl)-11-[(1S)-1-hydroxyethyl]-4-isopropyl-3,6,9,12-tetraoxo-1-phenyl-2-oxa-5,7,10,13,17-pentaazanonadecan-19-oic acid] | > 128 | 128 (≈ 124 µM) | > 128 | 128 (≈ 124 µM) | 128 (≈ 124 µM) | 128 (≈ 124 µM) | > 128 | > 128 | 128 (≈ 124 µM) | – | – | – | 64 (≈ 62.1 µM) | 128 (≈ 124 µM) | 128 (≈ 124 µM) | > 128 | > 128 | > 128 | > 128 | > 128 | MIC (CNS GC 4537): > 128 µg/mL; MIC (CNS GC 4538): > 128 µg/mL; MIC (CNS GC 4547): > 128 µg/mL
